Data: paper PMC5675747 (The Journal of steroid biochemistry and molecular biology, 2017)

What was measured:
zfSult2st3 = target: T1, zfSult2st3 (Danio rerio, UniProt A0ACM8QCA3); assay: […]PAPS sulfation assay, TLC and scintillation counting; format: biochemical; conditions: 14 μM PAPS, 50 mM Mops pH 7.0, 1 mM DTT, 28 °C; substrate inhibition constant
T1 sequence (A0ACM8QCA3 1-288): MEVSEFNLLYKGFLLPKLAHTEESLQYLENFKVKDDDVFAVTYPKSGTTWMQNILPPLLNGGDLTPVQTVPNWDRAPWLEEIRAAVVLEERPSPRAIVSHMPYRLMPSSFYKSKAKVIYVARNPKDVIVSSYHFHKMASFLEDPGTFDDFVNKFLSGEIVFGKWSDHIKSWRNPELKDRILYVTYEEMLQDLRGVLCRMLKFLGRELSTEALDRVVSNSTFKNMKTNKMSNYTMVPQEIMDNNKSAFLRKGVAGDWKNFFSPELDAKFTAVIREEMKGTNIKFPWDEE

zfSult2st2 = target: T2, zfSult2st2 (Danio rerio, UniProt A0EXC5); assay: as above; format: biochemical; conditions: 14 μM PAPS, 50 mM Mops pH 7.0, 1 mM DTT, 28 °C; substrate inhibition constant
T2 sequence (A0EXC5 1-287): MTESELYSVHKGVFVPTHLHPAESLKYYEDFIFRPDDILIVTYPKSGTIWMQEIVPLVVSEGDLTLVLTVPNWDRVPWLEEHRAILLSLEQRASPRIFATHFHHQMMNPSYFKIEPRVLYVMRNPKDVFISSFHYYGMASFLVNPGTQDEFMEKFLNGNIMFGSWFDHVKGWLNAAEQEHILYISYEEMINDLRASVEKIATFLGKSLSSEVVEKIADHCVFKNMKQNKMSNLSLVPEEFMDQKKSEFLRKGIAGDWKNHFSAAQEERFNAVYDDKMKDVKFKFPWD

hSULT2A1 = target: T3, hSULT2A1 (Homo sapiens, UniProt Q06520); assay: as above; format: biochemical; conditions: 14 μM PAPS, 50 mM Mops pH 7.0, 1 mM DTT, 37 °C; substrate inhibition constant
T3 sequence (Q06520 1-285): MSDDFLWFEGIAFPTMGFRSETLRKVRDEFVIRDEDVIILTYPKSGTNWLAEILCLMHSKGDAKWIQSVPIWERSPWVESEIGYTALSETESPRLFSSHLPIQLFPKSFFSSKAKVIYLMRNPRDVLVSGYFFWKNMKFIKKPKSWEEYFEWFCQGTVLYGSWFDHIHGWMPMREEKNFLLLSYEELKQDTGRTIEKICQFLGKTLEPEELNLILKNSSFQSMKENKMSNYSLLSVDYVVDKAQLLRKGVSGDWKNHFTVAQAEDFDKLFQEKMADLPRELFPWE

zfSult3st4 = target: T4, zfSult3st4 (Danio rerio, UniProt A0A8M1P203); assay: as above; format: biochemical; conditions: 14 μM PAPS, 50 mM Mops pH 7.0, 1 mM DTT, 28 °C; substrate inhibition constant
T4 sequence (A0A8M1P203 1-299): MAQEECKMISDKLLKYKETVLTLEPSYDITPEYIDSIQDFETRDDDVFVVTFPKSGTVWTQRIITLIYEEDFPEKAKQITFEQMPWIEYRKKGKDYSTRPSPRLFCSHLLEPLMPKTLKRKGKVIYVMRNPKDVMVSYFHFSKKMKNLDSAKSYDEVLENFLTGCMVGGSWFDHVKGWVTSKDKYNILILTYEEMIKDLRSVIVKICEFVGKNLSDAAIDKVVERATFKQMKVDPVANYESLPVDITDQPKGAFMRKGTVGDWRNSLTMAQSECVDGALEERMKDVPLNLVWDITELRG

purified protein [1] = substrate: C[C@H](CCCC(CO)CO)[C@H]1CC[C@H]2[C@@H]3[C@H](O)C[C@@H]4C[C@H](O)CC[C@]4(C)[C@H]3C[C@H](O)[C@]12C; assay: purified protein; format: biochemical, Homo sapiens; conditions: 14 μM PAPS, 50 mM Mops pH 7.0, 1 mM DTT, 37 °C
purified protein [2] = substrate: C[C@H](CCCC(CO)CO)[C@H]1CC[C@H]2[C@@H]3[C@H](O)C[C@@H]4C[C@H](O)CC[C@]4(C)[C@H]3C[C@H](O)[C@]12C; assay: purified protein; format: biochemical, Danio rerio; conditions: 14 μM PAPS, 50 mM Mops pH 7.0, 1 mM DTT, 28 °C

C[C@H](CCCC(CO)CO)[C@H]1CC[C@H]2[C@@H]3[C@H](O)C[C@@H]4C[C@H](O)CC[C@]4(C)[C@H]3C[C@H](O)[C@]12C [5β-cyprinol]
Ki (zfSult2st3): 39.78 ± 6.70 µM
Ki (zfSult2st2): 58.15 ± 5.74 µM

C[C@H](CCCC(CO)CO)[C@H]1CC[C@H]2[C@@H]3[C@H](O)C[C@H]4C[C@H](O)CC[C@]4(C)[C@H]3C[C@H](O)[C@]12C [5α-cyprinol, 3α,7α,12α,26,27-pentahydroxy-5α-cholestane]
Ki (zfSult2st3): 373.9 ± 38.0 µM
Ki (zfSult2st2): 27.43 ± 11.16 µM
Ki (hSULT2A1): 210.8 ± 19.9 µM
Ki (zfSult3st4): 164.9 ± 22.2 µM

B1: hSULT2A1 (Homo sapiens) (protein)
chain: MSDDFLWFEGIAFPTMGFRSETLRKVRDEFVIRDEDVIILTYPKSGTNWLAEILCLMHSKGDAKWIQSVPIWERSPWVESEIGYTALSETESPRLFSSHLPIQLFPKSFFSSKAKVIYLMRNPRDVLVSGYFFWKNMKFIKKPKSWEEYFEWFCQGTVLYGSWFDHIHGWMPMREEKNFLLLSYEELKQDTGRTIEKICQFLGKTLEPEELNLILKNSSFQSMKENKMSNYSLLSVDYVVDKAQLLRKGVSGDWKNHFTVAQAEDFDKLFQEKMADLPRELFPWE
Km (purified protein [1]): 221.3 ± 23.1 µM
Vmax (purified protein [1]): 0.00224 µmol/min/mg

B2: zfSult3st4 (Danio rerio) (protein)
chain: MAQEECKMISDKLLKYKETVLTLEPSYDITPEYIDSIQDFETRDDDVFVVTFPKSGTVWTQRIITLIYEEDFPEKAKQITFEQMPWIEYRKKGKDYSTRPSPRLFCSHLLEPLMPKTLKRKGKVIYVMRNPKDVMVSYFHFSKKMKNLDSAKSYDEVLENFLTGCMVGGSWFDHVKGWVTSKDKYNILILTYEEMIKDLRSVIVKICEFVGKNLSDAAIDKVVERATFKQMKVDPVANYESLPVDITDQPKGAFMRKGTVGDWRNSLTMAQSECVDGALEERMKDVPLNLVWDITELRG
Km (purified protein [2]): 98.9 ± 2.89 µM
Vmax (purified protein [2]): 0.00397 µmol/min/mg
